How the values were obtained:
[1] = molecular target: T1, SsuA (alkanesulphonate-binding protein) (Xanthomonas citri, UniProt A0AAI7ZHA1); assay: X-ray crystal structure of the complex; settings: ligand-binding pocket
T1 construct: mature periplasmic protein without the 42-residue signal peptide (972 bp amplicon), pET28a N-terminal His6 tag with thrombin site, tag cut with thrombin; expressed in E. coli BL21(DE3); one molecule per asymmetric unit

[2] = molecular target: T1, SsuA (alkanesulphonate-binding protein); assay: thermal shift assay, SYPRO orange; settings: 5 mM ligand, 6 µM SsuA, 20 mM Tris pH 7.4, 50 mM NaCl

T1 sequence (A0AAI7ZHA1 entry or part of it): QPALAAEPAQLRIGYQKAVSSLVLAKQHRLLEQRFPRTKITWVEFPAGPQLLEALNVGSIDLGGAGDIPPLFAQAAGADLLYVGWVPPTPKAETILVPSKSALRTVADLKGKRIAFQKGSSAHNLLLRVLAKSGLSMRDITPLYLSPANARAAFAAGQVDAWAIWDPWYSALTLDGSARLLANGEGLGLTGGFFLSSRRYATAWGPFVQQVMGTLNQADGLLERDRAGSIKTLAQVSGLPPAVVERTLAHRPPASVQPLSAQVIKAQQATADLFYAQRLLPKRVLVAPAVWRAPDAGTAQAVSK

| SMILES | X-ray crystal structure of the complex ([1]; 0.1 M HEPES pH 7.5, 1.6 M ammonium sulphate, 0.1 M NaCl) | Tm (unbound form 39.5 °C) [2] | X-ray crystal structure of the complex ([1]; PDB code as in the deposition statement b39 (b17 prints 3KSX for MES)) | X-ray crystal structure of the complex ([1]; PDB code as in the deposition statement b39 (b17 prints 3KSJ for MOPS)) |
| --- | --- | --- | --- | --- |
| O=S(=O)(O)CCN1CCN(CCO)CC1 [HEPES, 4-(2-hydroxyethyl)-1-piperazine ethane sulphonic acid] | PDB codes 3E4R (SsuA + HEPES), 3KSX (SsuA + MOPS) and 3KSJ (SsuA + MES) | 45.8 °C |  |  |
| O=S(=O)(O)CCNC1CCCCC1 [CHES, 2-(n-cyclohexylamino)-ethanesulphonic acid] |  | 43.5 °C |  |  |
| O=S(=O)(O)CCN1CCOCC1 [MES, 2-(n-morpholino)-ethanesulphonic acid] |  | 47.1 °C | PDB codes 3E4R (SsuA + HEPES), 3KSX (SsuA + MOPS) and 3KSJ (SsuA + MES) |  |
| O=S(=O)(O)CCCN1CCOCC1 [MOPS, 3-morpholinopropane-1-sulphonic acid] |  | 51 °C |  | PDB codes 3E4R (SsuA + HEPES), 3KSX (SsuA + MOPS) and 3KSJ (SsuA + MES) |

Source: article PMC3839906, “Structural and Physiological Analyses of the Alkanesulphonate-Binding Protein (SsuA) of the Citrus Pathogen Xanthomonas citri” (PLoS ONE, 2013)
